From BindingDB's records for doi:10.1158/0008-5472.can-03-3344 (St. Jude Children'S Research Hospital, 2004) come the findings set out here.

A short description of the data set: TP_TRANSPORTER: drug resistance(Imatinib mesylate) in BCRP-expressing SaoS2 cells.

Molecules are shown by their SMILES.

For orientation: IC50 means the concentration that gives 50% inhibition. Read a high IC50 as weaker potency in that assay.

Compound `CCc1c2c(nc3ccc(O)cc13)-c1cc3c(c(=O)n1C2)COC(=O)[C@]3(O)CC` [7-ETHYL-10-HYDROXY-CAMPTOTHECIN] displayed a half-inhibitory concentration (IC50) of 176 nM.
